Data: patent US20130295669A1, “METHOD FOR CONTROLLING BINDING OF CELLS TO A SUBSTRATE” (LONZA COLOGNE GMBH, priority 2010, published 2013)

How the values were obtained:
[1] = test system: mesenchymal stem cells from bone marrow (BM-MSC); assay: Dislocation of BM-MSCs with Trypsin/EDTA after pretreatment, and reseeding; type: cell-based; details: for effect against cell dislocation and clumping: 3 min Trypsin/EDTA; for cell proliferation (yield and viability) after reseeding: pretreatment before dislocation, 7 days in drug-free medium, 5000 cells/cm^2
Protocol: Subconfluent BM-MSCs were subjected to 4 h pretreatment (10 μM Blebbistatin or 10 μM Y-27632 vs control) and subsequent incubation for 3 min. with Trypsin/EDTA at 37° C. Cell counts were determined after dislocation of the cells from the surface of tissue culture flasks without specific coating (A). […] Dislocated cells are devoid of aggregates in drug-treated condition. […] Cells were reseeded (all conditions at same density: 5000 cells/cm^2) and cultured for additional 7 days in drug-free medium. After 7 days cell counts (B) and viability (C) were determined. […] An increase in cell proliferation (yield and viability) by Blebbistatin and less for Y-27632 treatment before dislocation in the subsequent drug-free passage (day 7) was also observed.

[2] = test system: mesenchymal stem cells from bone marrow (BM-MSCs); type: cell-based
Protocol: Cell aggregation (A), cell survival (B) and apoptosis (C) were assayed in presence or absence of different Blebbistatin concentrations up to seven days. ROCK inhibitor (Y-27532) was used as a positive control. Cells were added to deep-wells not supporting adherent growth. Different concentrations of Blebbistatin and Y-27632 were tested in suspension (deep-well, 130 RPM) and adhesion (six-well) culture on BM-MSCs (media containing 10% FBS). […] B: Live cells were quantified by FACS using dye-exclusion assay (propidium iodide). […] The survival-enhancing effect of Blebbistatin appeared concentration dependent peaking at 10 μM and decreasing at both higher and lower concentrations of Blebbistatin. C: Apoptotic cells were quantified by FACS using Annexin V-assay (propidium iodide).

[3] = test system: mesenchymal stem cells from bone marrow (BM-MSC); assay: BM-MSCs seeded on microcarriers for suspension culture; type: cell-based
Protocol: BM-MSCs were seeded on microcarriers for suspension culture in presence or absence of 10 μM Blebbistatin and allowed to proliferate for 6 days. After 24 h incubation without agitation the culture was sampled to determine cell count, Glucose consumption and cell seeding. After 5 additional days of incubation with agitation Glucose consumption (A), Lactate production (B), cell count (C) and cell seeding on carriers (DAPI-stain of cells on carrier, FIG. 11) were determined again. […] Accordingly, Blebbistatin has a protective effect on the cells resulting in enhanced proliferation after 6 days growth on microcarriers.

[4] = test system: mesenchymal stem cells from bone marrow (BM-MSC); assay: BM-MSC attachment and proliferation on repellent Teflon foil; type: cell-based; details: 10 μM
Protocol: MSCs were cultured with 10 μM Bb for 4 days on repellent Teflon® foil and the cells attached to the foil were counted on day 4. Bars represent the number of cells per well. Control cultures: BM-MSCs in DMSO or PBS without inhibitor. […] Thus, BM-MSCs attach and proliferate on Teflon® foil.
MSCs were cultured with 10 μM Bb on repellent Teflon® foil until confluency was reached, the cells attached to the foil were counted on day 6 after cell seeding. Bars represent the number of cells per well. Control cultures: BM-MSCs in DMSO or PBS without inhibitor.

[5] = test system: human Embryonic Stem Cells (hESCs); assay: Post-split attachment of hESCs on Matrigel-coated dishes in X-VIVO medium; type: cell-based
Protocol: The cells were cultured in defined X-VIVO medium containing no serum or animal-derived components on culture dishes coated with Matrigel®. A: No treatment with inhibitor (control), B: Transient treatment with 10 μM Blebbistatin (left micrograph: 4-fold magnification, right micrograph: 10-fold magnification), C: Culture 1 day after withdrawal of Blebbistatin. The post-split attachment of hESCs in X-VIVO has been low (A: 5-15%). When the culture was split (EDTA passage), the medium was supplemented with 10 μM of Blebbistatin. This increased the attachment of hESCs dramatically (B: 80-95%) compared to the post-split attachment of Blebbistatin-free hESC culture in X-VIVO. In fact, even the individualized hESCs attached very well. The media of the culture was replaced after 24 h with Blebbistatin-free X-VIVO to see how the cells stay attached and proliferate without Blebbistatin.

BM-MSCs = assay: Attachment of BM-MSCs to hydrophobic side of Lumox-biofoil bag; type: cell-based; details: 10 μM, 48 h treatment
Protocol: Colony and attached cells observed after 48 h treatment with <0.1% DMSO are shown. No significant attachment of cells could be observed.
Colony and attached cells observed after 48 h treatment with 10 μM Blebbistatin are shown. […] Thus, if compared to FIG. 6 (control), treatment with Blebbistatin results in an increased affinity of BM-MSCs to this surface.

[6] = test system: mesenchymal stem cells from bone marrow (BM-MSCs); assay: Cell aggregation of BM-MSCs in suspension (deep-well) culture; type: cell-based; details: for cell clustering: suspension deep-well
Protocol: (§1) Cell aggregation (A), cell survival (B) and apoptosis (C) were assayed in presence or absence of different Blebbistatin concentrations up to seven days. ROCK inhibitor (Y-27532) was used as a positive control. Cells were added to deep-wells not supporting adherent growth. Different concentrations of Blebbistatin and Y-27632 were tested in suspension (deep-well, 130 RPM) and adhesion (six-well) culture on BM-MSCs (media containing 10% FBS).
(§2) B: Live cells were quantified by FACS using dye-exclusion assay (propidium iodide). […] The survival-enhancing effect of Blebbistatin appeared concentration dependent peaking at 10 μM and decreasing at both higher and lower concentrations of Blebbistatin. C: Apoptotic cells were quantified by FACS using Annexin V-assay (propidium iodide).

[7] = test system: mesenchymal stem cells from bone marrow (BM-MSCs); assay: Apoptosis by Annexin V staining and FACS; type: cell-based
Protocol: as §1, §2

[8] = test system: stem cells from cord blood (CB-USSCs); assay: CB-USSCs on PTFE vessel material; type: cell-based; details: 10 μM, 3 days on PTFE-vessel material
Protocol: USSCs were cultured with 10 μM Bb for 3 days on repellent PTFE-vessel material compared to control cultures.

BM-MSC cultures = assay: Cell cycle profiles (G1/G0 and G2) by propidium iodide FACS with continuous BrdU incorporation; type: cell-based; details: suspension/shaking culture in deep-wells, up to 3 days
Source text: (§3) BM-MSC cultures were allowed to incorporate BrdU continuously and were sampled at different points of time (up to 3 days). Most cells are in G1/G0 phase (very dense culture), but there are also some G2-cells present. Absence of >4N cells (no multinucleated cells detected).
as §3, with “also” for “also some”, “detected). During continuous treatment in adherent T-flasks culture (G2/M) slight slowing down of the cell cycle was observed.” for “detected).”

[9] = test system: stem cells from cord blood (CB-USSC); assay: CB-USSC attachment and proliferation on repellent Teflon foil; type: cell-based; details: 10 μM
Protocol: USSCs were cultured with 10 μM Bb for 4 days on repellent Teflon® foil and the cells attached to the foil were counted on day 4. Bars represent the number of cells per well. Control cultures: CB-USSCs in DMSO or PBS without inhibitor. […] Thus, CB-USSCs attach and proliferate on Teflon® foil.
USSCs were cultured with 10 μM Bb on repellent Teflon® foil until confluency was reached, the cells attached to the foil were counted on day 6 after cell seeding. Bars represent the number of cells per well. Control cultures: CB-USSCs in DMSO or PBS without inhibitor.
USSCs were cultured with 10 μM Bb on repellent Teflon® foil dish and counted on day 4 after cell seeding. Bars represent the number of cells per well. Control cultures: CB-USSCs in DMSO or PBS without inhibitor. […] USSC attachment and proliferation on Teflon® foil in serum-reduced (EGM2) media is enhanced by myosin inhibition.
USSCs were cultured with 10 μM Bb on repellent Teflon® foil dish and counted on day 4 after cell seeding. Bars represent the number of cells per well. Control cultures: CB-USSCs in DMSO or PBS without inhibitor.

[10] = test system: human embryonal stem cells (hEST); assay: Cryopreservation recovery of human embryonal stem cells; type: cell-based
Source text: Usually only cell clusters can be cryopreserved, but not single ES cells.
Moreover, adding Blebbistatin before freezing is beneficial for cryopreserving single hESCs.

[11] = test system: human pluripotent stem cells; details: clonal density and suspension conditions; cited from earlier work
[12] = deep well culture, up to seven days, overall statement

## C[C@@H](N)[C@H]1CC[C@H](C(=O)Nc2ccncc2)CC1 [Y-27632]
[1]; 10 μM, 4 h pretreatment
  effect against cell dislocation and clumping: protective effects against cell dislocation and clumping
[1]
  cell proliferation (yield and viability) after reseeding: less

## Cc1ccc2c(c1)C(=O)C1(O)CCN(c3ccccc3)C1=N2 (stereo not drawn) [Blebbistatin]
[2]
  optimum concentration for eliminating cell death: 10 µM
[2]; [12]
  cell survival: enables cell survival
[2]; especially at 10-50 μM, adhesive/static or suspension/shaking
  cell death rates (propidium iodide, FACS): significantly eliminates cell death
[2]; suspension, decreasing at higher and lower concentrations
  concentration at which survival-enhancing effect peaks: 10 µM
[3]; 10 μM, after 24 h without agitation
  cell seeding on microcarriers: markedly increased
[3]; 10 μM, after 6 days
  Glucose consumption: no effect
  Lactate production: no effect
[3]; 10 μM, after 6 days on microcarriers
  cell number: significantly increased
[3]; after 6 days of incubation
  cells adhering to microcarriers (DAPI-stain micrographs): much more cells adhere to the microcarriers
[4]; day 4
  cell yield (cells attached to foil per well): significant increase in cell yield
[4]; day 6
  confluency on Teflon foil: do not form a completely confluent layer
[4]; day 6 after cell seeding
  cell yield (cells attached to foil per well): No differences in cell yield
[1]; 10 μM, 4 h pretreatment
  effect against cell dislocation and clumping: protective effects against cell dislocation and clumping
[1]; 10 μM, 4 h pretreatment, 3 min Trypsin/EDTA at 37° C.
  cell counts dislocated from tissue culture flasks: Fewer cells are dislocated
[1]
  cell proliferation (yield and viability) after reseeding: enhanced proliferation and viability
[5]; 10 μM, EDTA passage, X-VIVO medium, Matrigel
  post-split attachment of hESCs: 80-95%
[5]; medium replaced after 24 h, 1 day after withdrawal
  attachment and proliferation after withdrawal of Blebbistatin: no significant changes could be observed
BM-MSCs
  cells attached to hydrophobic surface: A significant number of cells is attached
[6]; 10 μM
  cell clustering: prevents cell clustering
[6]; [12]
  cell aggregation: prevents or at least greatly reduces cell aggregation
[6]; less than 10 μM
  cell clustering: formed a single aggregate
[7]
  concentration of greatest anti-apoptotic effect: 10 µM
[7]; 10 μM, versus DMSO, PBS controls
  apoptotic cells (Annexin V-assay): protected against apoptosis
[7]; below 5 μM
  anti-apoptotic effect: merely a limited effect
[7]; [12]
  apoptosis: decreases apoptosis
[7]; suspension/shaking conditions
  cell death in suspension culture (AnnexinV staining): eliminates cell death in suspension culture
[7]; various inhibitor concentrations
  anti-apoptotic effect relative to Y-27632: comparable or stronger than that of Y-27632
[8]
  cell spreading and aggregate formation: Markedly enhanced cell spreading but no aggregate formation
BM-MSC cultures
  effect on cell cycle: no significant effect
[9]; day 4
  cell yield (cells attached to foil per well): highly significant increase in cell yield
[9]; day 4, low serum EGM2+Dex-media (3% serum)
  proliferation (cells per well): significantly enhanced proliferation
[9]; day 4, serum-free MSCGM-CD medium
  cell yield (cells per well): No apparent increase in cell yield
[9]; day 6
  confluency on Teflon foil: form confluent layers
[9]; day 6 after cell seeding
  cell yield (cells attached to foil per well): significant increase in cell yield
[10]
  cryopreservation recovery of single hESCs: increases the cryopreservation recovery of single hESCs to the comparable level of the recovery of hESC clusters
[10]; added before freezing
  effect of adding before freezing on cryopreserving single hESCs: beneficial
[11]
  survival rate of human pluripotent stem cells: increases the survival rate
